The structures appear in SMILES notation. Where a name gives a salt, the structure may show the parent alone. A value given as a limit tells only on which side of the number the result lay.

Series [1] deals with PD1 signal sequence plus 10 amino acids fused to Gaussia Luciferase (PD1-ss+10aa/Gaussia Luciferase). Put plainly: Dox Induced PD1-ss-Gluc Assay. The conditions noted are these: 24 hr, 293FRT/TO; read-out: 24 hr Dox Inducible PD1ssGluc 293FRT/TO: Mean IC50. The format is cell-based. The text has this: FIp-In 293 T-REx™ cells were transfected with pcDNA™5/FRT/TO plasmid inserted with cDNA encoding Gaussia Luciferase fused to the 3′ end of cDNA encoding PD1 signal sequence plus 10 amino acids (N-[…]-C) (SEQ ID NO: 1). Transfected cells were selected for resistance to the selectable markers Hygromycin and Blasticidin to create a stable cell line that contained the PD1-ss+10aa/Gaussia Luciferase cDNA insert whose expression was regulated under the T-REx™ system. The day before assay, cells were trypsinized and plated in 384-well tissue culture plates. The next day, compound dilutions in DMSO/media containing doxycycline were added to the wells and incubated at 37° C., 5% CO2.
(§1) For chemical structures that include one or more stereoisomers, but are illustrated without indicating stereochemistry, the assay data refers to a mixture of stereoisomers.

Series [2] has as its system full length TNFα (amino acids 1-233) fused to Gaussia Luciferase. Put plainly: Dox Induced TNFα-FL-Gluc Assay. The format is cell-based. As to conditions: 24 hr, 293FRT/TO; read-out: 24 hr Dox Inducible TNFaFLGluc 293FRT/TO: Mean IC50.
Description: FIp-In 293 T-REx™ cells were transfected with pcDNA™5/FRT/TO plasmid inserted with cDNA encoding Gaussia Luciferase fused to the 3′ end of cDNA encoding full length TNFα (amino acids 1-233). Transfected cells were selected for resistance to the selectable markers Hygromycin and Blasticidin to create a stable cell line that contained the TNFα-FL/Gaussia Luciferase cDNA insert whose expression was regulated under the T-REx™ system. The day before assay, cells were trypsinized and plated in 384-well tissue culture plates. The next day, compound dilutions in DMSO/media containing doxycycline were added to the wells and incubated at 37° C., 5% CO2.
as §1

Series [3] deals with multiple myeloma cell line NCl-H929. Put plainly: H929 Cell Viability Assay. It is filed as cell-based, human. As to conditions: Homo sapiens, NCI-H929, 48 h, H929, read-out: 48 hr H929 Viability Celltiter-Glo: Mean EC50. How it is done: The human multiple myeloma cell line NCl-H929 was cultured in Advanced RPMI 1640 media (Gibco®) supplemented with 6% fetal bovine serum, 2 mM Glutamine, and 1× Penicillin/Streptomycin. On the day of assay, cells were resuspended in RPMI 1640 media supplemented with 10% fetal bovine serum, 2 mM Glutamine, and 1× Penicillin/Streptmycin and plated in 384-well tissue culture plates and treated with compound dilutions in DMSO/media. Plates were incubated at 37° C., 5% CO2 for 48 hours. After 48 hours, Celltiter-Glo® (Promega) was added to each well and luciferase signal was quantified using Tecan Infinite M1000 Pro for cell viability determination.
as §1
In general terms: ATP-based viability assays read luminescence as a measure of living cells.

Series [4] relates to multiple myeloma cell line U266B1. Put plainly: U266 Cell Viability Assay. The conditions noted are these: Homo sapiens, U-266; 48 hr, U266; read-out: 48 hr U266 Viability Celltiter-Glo: Mean EC50. The format is cell-based, human. The procedure: The human multiple myeloma cell line U266B1 was cultured in RPMI 1640 media supplemented with 10% fetal bovine serum, 2 mM Glutamine, and 1× Penicillin/Streptomycin. Cells were plated in 384-well tissue culture plates and treated with compound dilutions in DMSO/media. Plates were incubated at 37° C., 5% CO2 for 48 hours. After 48 hours, Celltiter-Glo® (Promega) was added to each well and luciferase signal was quantified using Tecan Infinite M1000 Pro for cell viability determination.
For chemical structures that include one or more stereoisomers, but are illustrated without indicating stereochemistry, the assay data refers to a mixture of stereoisomers

Series [5] can be described thus: In Vitro Microsome Stability Assay (human). The format is in vitro ADME. The conditions noted are these: human, 30 min, NADPH. The procedure:
(§2) Potassium phosphate (423 μL of a 0.1 M solution) was added to 8-strip deep well tubes followed by human, mouse, rat, or monkey microsomes (25 μL of a 20 mg/mL solution). The tubes were then placed on ice and the test article (2 μL of a 0.25 mM solution in DMSO) was added. The mixture was preincubated at 37° C. for 3 to 5 minutes (shaking at 150 rpm) then the reaction was initiated by adding 50 μL NADPH. An aliquot of samples (100 μL) were collected at 0 and 30 min and 200 μL of an acetonitrile mixture containing IS (compound 914) was added to quench the reaction. After centrifuging for 10 min at 4000 rpm, a mixed solution of the 20 μL of the supernatant (20 μL) plus 100 μL ACN/H2O (1:1) were injected for LC-MS/MS analysis. Liver microsome stability is assessed by the % remaining of compound at 30 min which is calculated using the following equation: [(AUCanalyteT=30/AUCIS)/(AUCanalyteT=0/AUCIS)]*100
as §1

Series [6] can be described thus: In Vitro Microsome Stability Assay (mouse). The conditions noted are these: mouse, 30 min, NADPH. The format is in vitro ADME. How it is done:
as §2, §1

The nature of series [7]: In Vitro Microsome Stability Assay (rat). It is filed as in vitro ADME. As to conditions: rat, 30 min, NADPH. The procedure: as §2, §1
The nature of series [8]: In Vitro Microsome Stability Assay (monkey). The format is in vitro ADME. The conditions noted are these: monkey, 30 min, NADPH. The procedure:
as §2, §1

For orientation: EC50 means the midpoint of the concentration-response curve. As for `O=C(c1ccc(Cl)cc1)N1CCCN(S(=O)(=O)N2CCCCC2)CC2(CC2)CN(S(=O)(=O)N2CCCCC2)CCC1` [A24, (5,13-bis(piperidin-1-ylsulfonyl)-5,9,13-triazaspiro[2.11]tetradecan-9-yl)(4-chlorophenyl)methanone], the IC50 in series [1] and in series [2] was greater than 25000 nM in each case. The EC50 in series [3] and in series [4] was greater than 25000 nM throughout. For the same molecule, in series [5], the “Liver Microsome Stability-% Left after 30 min w/ NADPH (%) Human” value (shortened to “Liver Microsome Stability-% Left … (%) Human”) is reported as 0.03%. Moreover, the “Liver Microsome Stability-% Left after 30 min w/ NADPH (%) Mouse” value (“Liver Microsome Stability-% Left … (%) Mouse” for short) in series [6] came to 0.13%. Further, in series [7], the “Liver Microsome Stability-% Left after 30 min w/ NADPH (%) Rat” value (“Liver Microsome Stability-% Left … (%) Rat” below) was 0.04%. Also, the “Liver Microsome Stability-% Left after 30 min w/ NADPH (%) Monkey” value (“Liver Microsome Stability-% Left … (%) Monkey” for short) in series [8] is 0.03%.

Take `C=C1CN(S(=O)(=O)c2ccc(C)cc2)CCCN(CC2CCC(C)(C)CC2)CCCN(S(=O)(=O)c2ccc(N(C)C)cc2)C1` [A10, 4-((9-((4,4-dimethylcyclohexyl)methyl)-3-methylene-5-tosyl-1,5,9-triazacyclododecan-1-yl)sulfonyl)-N,N-dimethylaniline hydrochloride]: the figures for the IC50 in series [1] and in series [2] were 123 nM and 4690 nM, respectively. The EC50 was 2860 nM in series [3] and greater than 25000 nM in series [4]. For the same molecule, in series [5], the “Liver Microsome Stability-% Left … (%) Human” value is 0.77%. Besides, the “Liver Microsome Stability-% Left … (%) Mouse” value in series [6] came to 0.2%. Besides, the “Liver Microsome Stability-% Left … (%) Rat” value in series [7] worked out at 8.85%. The “Liver Microsome Stability-% Left … (%) Monkey” value in series [8] came out at 0.14%.

Take `C=C1CN(S(=O)(=O)c2ccc(N(C)C)cc2)CCCN(CC2CCCCC2)CCCN(S(=O)(=O)N2CCC(Oc3ccccc3)CC2)C1` [A37, 4-{[9-(cyclohexylmethyl)-3-methylidene-5-[(4-phenoxypiperidin-1-yl)sulfonyl]-1,5,9-triazacyclododecan-1-yl]sulfonyl}-N,N-dimethylaniline]: the IC50 was 202 nM in series [1] and greater than 25000 nM in series [2]. Besides, the EC50 in series [3] and in series [4] was greater than 25000 nM in each case. In addition, in series [5], the “Liver Microsome Stability-% Left … (%) Human” value turned out to be 8.26%. Further, in series [6], the “Liver Microsome Stability-% Left … (%) Mouse” value is recorded as 6.03%. In addition, the “Liver Microsome Stability-% Left … (%) Rat” value in series [7] is listed as 13.5%. The “Liver Microsome Stability-% Left … (%) Monkey” value in series [8] amounted to 5.69%.

Turning to `C=C1CN(S(=O)(=O)c2ccc(C)cc2)CCCN(CC2CCOCC2)CCCN(S(=O)(=O)c2ccc(N(C)C)cc2)C1` [A9, N,N-dimethyl-4-{[5-(4-methylbenzenesulfonyl)-3-methylidene-9-[(oxan-4-yl)methyl]-1,5,9-triazacyclododecan-1-yl]sulfonyl}aniline], the IC50 in series [1] was 1110 nM; in series [2], greater than 25000 nM. Further, the EC50 in series [3] and in series [4] was greater than 25000 nM each time. The “Liver Microsome Stability-% Left … (%) Human” value in series [5] was 0.09%. Besides, in series [6], the “Liver Microsome Stability-% Left … (%) Mouse” value was 0.34%. In addition, the “Liver Microsome Stability-% Left … (%) Rat” value in series [7] is 0.14%. For the same molecule, the “Liver Microsome Stability-% Left … (%) Monkey” value in series [8] is reported as 0.66%.

For `CC1CCCN(S(=O)(=O)N2CCCN(CC3CCCCC3)CCCN(S(=O)(=O)c3ccc(N(C)C)cc3)CC3(CC3)C2)C1` (stereo not shown) [A21, 4-{[9-(cyclohexylmethyl)-13-[(3-methylpiperidin-1-yl)sulfonyl]-5,9,13-triazaspiro[2.11]tetradecan-5-yl]sulfonyl}-N,N-dimethylaniline], the IC50 turned out to be 184 nM in series [1] and 10000 nM in series [2]. The concentration for a half-maximal effect (EC50) in series [3] is 8290 nM; in series [4], greater than 25000 nM. In addition, the “Liver Microsome Stability-% Left … (%) Human” value in series [5] was found to be 0.14%. In series [6], the “Liver Microsome Stability-% Left … (%) Mouse” value is 1.77%. Moreover, the “Liver Microsome Stability-% Left … (%) Rat” value in series [7] is recorded as 0.62%. Further, the “Liver Microsome Stability-% Left … (%) Monkey” value in series [8] worked out at 0.11%.

Regarding `C=C1CN(S(=O)(=O)c2ccc(N(C)C)cc2)CCCN(CC2CCCCC2)CCCN(S(=O)(=O)N2CCc3ccc(Cl)cc3C2)C1` [A52, 4-({5-[(7-chloro-1,2,3,4-tetrahydroisoquinolin-2-yl)sulfonyl]-9-(cyclohexylmethyl)-3-methylidene-1,5,9-triazacyclododecan-1-yl}sulfonyl)-N,N-dimethylaniline], the results for the IC50 in series [1] and in series [2] were 45.6 nM and 1040 nM, respectively. Also, the concentration giving a half-maximal response (EC50) in series [3] is 2110 nM; in series [4] it was greater than 25000 nM. In series [5], the “Liver Microsome Stability-% Left … (%) Human” value was determined as 31%. Also, in series [6], the “Liver Microsome Stability-% Left … (%) Mouse” value worked out at 29.3%. In series [7], the “Liver Microsome Stability-% Left … (%) Rat” value is 40.1%. Further, in series [8], the “Liver Microsome Stability-% Left … (%) Monkey” value is listed as 38.3%.

Regarding `C=C1CN(S(=O)(=O)c2ccc(N(C)C)cc2)CCCN(CC2CCCCC2)CCCN(S(=O)(=O)N2CCc3cc(Br)ccc3C2)C1` [A60, 4-({5-[(6-bromo-1,2,3,4-tetrahydroisoquinolin-2-yl)sulfonyl]-9-(cyclohexylmethyl)-3-methylidene-1,5,9-triazacyclododecan-1-yl}sulfonyl)-N,N-dimethylaniline], the IC50 in series [1] is 18.5 nM; in series [2], 886 nM. The figures for the concentration giving a half-maximal response (EC50) in series [3] and in series [4] were 1480 nM and greater than 25000 nM, respectively. The “Liver Microsome Stability-% Left … (%) Human” value in series [5] was found to be 46.7%. In addition, the “Liver Microsome Stability-% Left … (%) Mouse” value in series [6] amounted to 60.8%. The “Liver Microsome Stability-% Left … (%) Rat” value in series [7] is on record as 50.3%. Also, the “Liver Microsome Stability-% Left … (%) Monkey” value in series [8] is recorded as 38.7%.

Consider `C=C1CN(S(=O)(=O)c2ccc(N(C)C)cc2)CCCN(CC2CCCCC2)CCCN(S(=O)(=O)N2CC=C(c3ccccc3Cl)CC2)C1` [A73, 4-[(5-{[4-(2-chlorophenyl)-1,2,3,6-tetrahydropyridin-1-yl]sulfonyl}-9-(cyclohexylmethyl)-3-methylidene-1,5,9-triazacyclododecan-1-yl)sulfonyl]-N,N-dimethylaniline], for which the IC50 in series [1] is 37.3 nM; in series [2], 1860 nM. Also, the values for the EC50 in series [3] and in series [4] were 3470 nM and greater than 25000 nM, respectively. Further, the “Liver Microsome Stability-% Left … (%) Human” value in series [5] was found to be 18.2%. Also, in series [6], the “Liver Microsome Stability-% Left … (%) Mouse” value stood at 16.3%. Besides, in series [7], the “Liver Microsome Stability-% Left … (%) Rat” value is listed as 71.5%. Further, the “Liver Microsome Stability-% Left … (%) Monkey” value in series [8] is reported as 25.4%.

(Values after US11578055B2, “Triazacyclododecansulfonamide (“TCD”)-based protein secretion inhibitors” (KEZAR LIFE SCIENCES, priority 2018, dated 2023).)
